In patent publication US8012945B2, “Phage antibodies to radiation-inducible neoantigens” (Vanderbilt University, priority 2001, dated 2011):

Columns and labels:
B16F0 tumors = assay: Biotinylated dodecapeptide binding in B16F0 hind limb tumors, Avidin-FITC staining; type: in vivo, mice
Excerpt: Observations. The peptide sequence within fibrinogen that binds to the activated GPIIb/IIIa receptor is the dodecapeptide […] (SEQ ID NO: 16). To determine whether […] (SEQ ID NO: 16) binds in irradiated tumors, applicant utilized the peptide […] (SEQ ID NO: 16) linked to biotin by a serine-glycine linker ([…]-SGSGSK-biotin; SEQ ID NO: 30). This peptide was synthesized in the Vanderbilt University Peptide Core Lab and biotinylated at the carboxyl terminus. The resulting […]-SGSGSK-biotin (SEQ ID NO: 30) was administered by tail vein injection into tumor bearing mice. B16F0 tumors in the hind limb were treated with sham irradiation (control), 4 Gy irradiation followed by […]-SGSGSK-biotin (SEQ ID NO: 30) injection, or […]-SGSGSK-biotin (SEQ ID NO: 30) followed by tumor irradiation (4 Gy). Tumors were frozen at 4 hours and sectioned for fluorescence staining. Avidin-FITC was incubated with tumor sections and imaged by UV microscopy.

α2bβ3 receptor = target: T1, α2bβ3 receptor (Mus musculus, UniProt O54890+Q9QUM0); assay: Recombinant phage binding in irradiated tumors after blocking antibody, plaque formation; type: in vivo; details: phage quantified by plaque formation
T1 construct: from tissue; host or cells: irradiated tumours (blood vessels and platelets) in living mice
T1 sequence (Q9QUM0 32-1033): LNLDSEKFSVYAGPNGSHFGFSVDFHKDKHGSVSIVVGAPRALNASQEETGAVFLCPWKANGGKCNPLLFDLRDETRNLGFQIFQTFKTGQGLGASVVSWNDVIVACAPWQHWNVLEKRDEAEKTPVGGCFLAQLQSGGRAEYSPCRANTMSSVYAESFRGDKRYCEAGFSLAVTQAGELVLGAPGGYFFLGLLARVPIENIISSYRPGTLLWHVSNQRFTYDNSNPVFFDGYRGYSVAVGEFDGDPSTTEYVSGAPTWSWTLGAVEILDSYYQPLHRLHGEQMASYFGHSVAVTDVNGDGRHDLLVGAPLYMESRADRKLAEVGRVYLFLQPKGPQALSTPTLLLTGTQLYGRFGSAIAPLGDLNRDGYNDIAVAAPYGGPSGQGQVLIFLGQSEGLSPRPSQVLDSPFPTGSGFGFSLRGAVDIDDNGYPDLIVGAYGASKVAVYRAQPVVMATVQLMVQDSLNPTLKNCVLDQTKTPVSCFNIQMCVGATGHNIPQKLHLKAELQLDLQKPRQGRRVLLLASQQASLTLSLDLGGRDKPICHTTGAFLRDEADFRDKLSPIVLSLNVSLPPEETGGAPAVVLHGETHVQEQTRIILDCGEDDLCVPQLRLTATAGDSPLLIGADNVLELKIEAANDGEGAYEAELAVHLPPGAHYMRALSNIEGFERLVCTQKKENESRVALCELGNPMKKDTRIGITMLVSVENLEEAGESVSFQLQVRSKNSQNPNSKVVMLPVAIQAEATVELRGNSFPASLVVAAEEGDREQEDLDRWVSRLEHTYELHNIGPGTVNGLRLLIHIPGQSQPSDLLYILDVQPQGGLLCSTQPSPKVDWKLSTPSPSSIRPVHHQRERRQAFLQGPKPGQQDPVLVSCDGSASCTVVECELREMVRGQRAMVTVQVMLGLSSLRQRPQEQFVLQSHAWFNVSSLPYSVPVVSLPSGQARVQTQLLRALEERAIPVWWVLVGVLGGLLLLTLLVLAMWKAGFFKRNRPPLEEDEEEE
T1 sequence (O54890 26-787): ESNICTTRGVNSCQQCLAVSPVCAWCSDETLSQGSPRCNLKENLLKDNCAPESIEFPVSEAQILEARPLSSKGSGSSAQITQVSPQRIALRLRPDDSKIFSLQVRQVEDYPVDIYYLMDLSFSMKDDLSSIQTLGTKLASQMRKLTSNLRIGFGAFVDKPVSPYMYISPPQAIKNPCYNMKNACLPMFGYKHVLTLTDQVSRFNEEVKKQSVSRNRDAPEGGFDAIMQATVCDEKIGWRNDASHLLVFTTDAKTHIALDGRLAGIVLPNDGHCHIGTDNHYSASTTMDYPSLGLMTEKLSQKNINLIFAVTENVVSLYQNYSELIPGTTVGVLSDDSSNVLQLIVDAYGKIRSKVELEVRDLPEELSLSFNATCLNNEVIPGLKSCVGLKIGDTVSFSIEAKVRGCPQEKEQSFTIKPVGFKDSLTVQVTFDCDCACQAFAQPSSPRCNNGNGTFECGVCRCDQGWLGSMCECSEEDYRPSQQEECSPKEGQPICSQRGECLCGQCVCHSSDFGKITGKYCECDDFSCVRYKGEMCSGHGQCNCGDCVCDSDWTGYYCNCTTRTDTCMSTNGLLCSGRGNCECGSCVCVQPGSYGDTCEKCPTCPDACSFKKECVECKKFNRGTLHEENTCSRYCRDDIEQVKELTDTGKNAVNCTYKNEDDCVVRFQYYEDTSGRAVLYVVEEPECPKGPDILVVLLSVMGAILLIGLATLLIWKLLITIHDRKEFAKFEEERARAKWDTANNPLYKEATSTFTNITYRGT
Procedure: The anti-[…]2b[…]3 monoclonal antibody was administered by tail vein to determine whether this receptor is required for recombinant phage binding in irradiated tumors. Phage encoding […] (SEQ ID NO: 5) on the capsid protein were injected immediately after blocking antibody or control antibody. Phage were recovered from the tumor and controls organs and quantified by plaque formation. Radiation induced a 4-fold increase in phage binding in tumor. […] Thus, the tumor binding activity of targeting peptide […] (SEQ ID NO: 5) is dependent on its interaction with the α2bβ3 receptor.

[1] = target: T2, GP-IIb/IIIa receptors on activated platelets (Homo sapiens, UniProt P05106+P08514); assay: Clinical trial of x-ray-guided delivery, gamma camera/SPECT imaging of ^99mTc-labeled biapcitide; type: in vivo
T2 construct: endogenous in cells; host or cells: platelets in irradiated tumours of patients (in vivo imaging)
T2 sequence (P08514 32-887 limits assumed): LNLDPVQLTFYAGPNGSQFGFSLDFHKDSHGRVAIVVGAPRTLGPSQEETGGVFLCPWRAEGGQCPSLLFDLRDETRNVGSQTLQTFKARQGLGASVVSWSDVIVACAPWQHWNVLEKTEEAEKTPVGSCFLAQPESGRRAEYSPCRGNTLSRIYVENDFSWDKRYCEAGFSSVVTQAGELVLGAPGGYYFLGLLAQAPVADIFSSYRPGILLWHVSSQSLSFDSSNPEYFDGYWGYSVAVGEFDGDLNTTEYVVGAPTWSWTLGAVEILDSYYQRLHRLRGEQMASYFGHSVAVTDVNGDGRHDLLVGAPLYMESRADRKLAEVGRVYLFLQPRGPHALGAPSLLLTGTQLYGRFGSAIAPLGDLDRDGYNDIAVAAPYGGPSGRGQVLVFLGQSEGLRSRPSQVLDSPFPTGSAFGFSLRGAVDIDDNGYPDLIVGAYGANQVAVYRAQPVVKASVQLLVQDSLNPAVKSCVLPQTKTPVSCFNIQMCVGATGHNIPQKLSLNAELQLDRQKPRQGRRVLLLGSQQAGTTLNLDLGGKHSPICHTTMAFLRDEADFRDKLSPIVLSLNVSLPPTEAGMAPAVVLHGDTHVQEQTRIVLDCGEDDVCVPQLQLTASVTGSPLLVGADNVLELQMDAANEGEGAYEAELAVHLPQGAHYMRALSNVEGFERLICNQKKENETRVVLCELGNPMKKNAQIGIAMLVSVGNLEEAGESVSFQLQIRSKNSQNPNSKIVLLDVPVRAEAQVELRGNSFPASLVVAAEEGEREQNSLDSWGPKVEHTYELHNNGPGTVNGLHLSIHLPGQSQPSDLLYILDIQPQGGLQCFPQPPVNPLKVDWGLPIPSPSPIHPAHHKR
T2 sequence (P08514 891-1039 partner limits assumed): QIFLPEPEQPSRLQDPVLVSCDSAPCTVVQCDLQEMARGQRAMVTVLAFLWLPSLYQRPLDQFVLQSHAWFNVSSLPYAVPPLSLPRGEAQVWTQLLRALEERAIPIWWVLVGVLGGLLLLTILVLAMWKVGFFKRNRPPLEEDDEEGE
T2 sequence (P05106 27-788): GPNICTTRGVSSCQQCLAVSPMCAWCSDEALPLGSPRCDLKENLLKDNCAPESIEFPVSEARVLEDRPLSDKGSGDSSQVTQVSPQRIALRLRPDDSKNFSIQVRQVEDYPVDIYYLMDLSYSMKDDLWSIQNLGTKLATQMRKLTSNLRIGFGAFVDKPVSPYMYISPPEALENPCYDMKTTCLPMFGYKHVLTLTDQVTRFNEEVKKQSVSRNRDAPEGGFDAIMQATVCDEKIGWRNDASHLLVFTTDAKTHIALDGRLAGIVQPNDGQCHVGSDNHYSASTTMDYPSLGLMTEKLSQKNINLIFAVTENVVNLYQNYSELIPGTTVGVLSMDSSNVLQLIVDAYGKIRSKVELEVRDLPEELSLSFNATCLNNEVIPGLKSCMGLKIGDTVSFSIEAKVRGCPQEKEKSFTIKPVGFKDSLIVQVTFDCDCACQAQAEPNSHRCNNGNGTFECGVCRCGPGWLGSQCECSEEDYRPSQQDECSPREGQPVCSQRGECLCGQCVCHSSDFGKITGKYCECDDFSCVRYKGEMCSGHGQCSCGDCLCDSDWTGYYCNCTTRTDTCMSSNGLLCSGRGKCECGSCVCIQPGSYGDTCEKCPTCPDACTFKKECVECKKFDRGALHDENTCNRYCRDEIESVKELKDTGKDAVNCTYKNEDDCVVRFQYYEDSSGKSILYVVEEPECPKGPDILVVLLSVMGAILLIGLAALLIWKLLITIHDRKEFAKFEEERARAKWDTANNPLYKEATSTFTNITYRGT
Procedure: Biapcitide (ACUTECT® available from Diatide, Inc., Londonderry, N.H., United States of America) is a synthetic peptide that binds to GP-IIb/IIIa receptors on activated platelets (Hawiger et al., 1989; Hawiger & Timmons, 1992). Biapcitide was labeled with ^99mTc in accordance with a protocol provided by Diatide Inc.
Reconstituted ^99mTc-labeled biapcitide was administered to patients at a dose of 100 mcg of biapcitide radiolabeled with 10 millicuries (mCi) of ^99mTc. […] Patients were then treated with 10 Gy or more. Patients underwent gamma camera imaging prior to irradiation and 24 hours following irradiation. Following planar image acquisition, those patients showing uptake in irradiated tumors underwent tomographic imaging using SPECT and repeat imaging at 24 hours. Patients showing no uptake on planer images during this 24-hour time frame had no further imaging.
Patients were treated with X-irradiation ranging from 4 to 18 MV photon using external beam linear accelerator at Vanderbilt University. Appropriate blocks, wedges and bolus to deliver adequate dose to the planned target volume was utilized. The site of irradiation, treatment intent and normal tissue considerations determined the radiation dosage and volume. When stereotactic radiosurgery was used, the dose was prescribed to the tumor periphery.
Image Analysis. Image acquisition consisted of both planar and single photon emission computed tomography (SPECT) studies. […] The spatial distribution of […] within the planar image was measured using region of interest (ROI) analysis. […] The rationale for using ROIs with different dimensions is to be able to quantify image counts while at the same time isolating any possible influence of ROI size on the results. […] Background counts was determined based on ROI analysis of a separate planar acquisition performed in the absence of a radioactive source.
Three-dimensional nuclear medicine SPECT examinations were performed using the same dual-head gamma camera system. […] SPECT tumor-to-background ratios were computed using quantitative ROI techniques identical to the planar studies.

HHLGGAKQAGDV (Artificial peptide ligand number 16) [dodecapeptide, segment of the γ subunit of fibrinogen]
efficiency of schedule of administration (B16F0 tumors; administration prior to irradiation compared to radiation before administration): administration prior to irradiation is a more efficient schedule

SLRGDGSSV (phage-displayed; Artificial peptide ligand number 5)
radiation-induced increase in phage binding in tumor (α2bβ3 receptor): 4 fold

Biapcitide [^99mTc-labeled biapticide]
tumor binding ([1]; administered immediately prior to radiation): 4 of 4
localization to the tumor ([1]; administered within one hour following radiation): failed to show localization
binding in untreated tumor ([1]; second neoplasms not treated with radiation, two patients): not observed

HHLGGAKQAGDV-SGSGSK-biotin
Avidin-FITC staining of tumor sections, irradiated tumors (B16F0 tumors; 4 Gy, tumors frozen at 4 hours): Avidin-FITC stained blood vessels were observed
Avidin-FITC staining of tumor sections, untreated control (B16F0 tumors; sham irradiation): not in untreated control
